Toxic doses and inconclusive results are not listed. No stated cut-off is given here; in the data, active means T/C of 150% or more; inactive means T/C below 125%.
System: L1210 leukemia ip in BDF1 mice, survival T/C
Assay: NCI In Vivo Anticancer Drug Screen. Data for tumor model L1210 Leukemia (intraperitoneal) in B6D2F1 (BDF1) mice
Conditions: endpoint: mean survival time, higher = longer survival
Procedure, shortened: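 Transplantable tumor model; survival measured in treated vs vehicle control mice. Value = treated/control.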

[1] = dose: 100.0 mg/kg/injection, schedule: Q01DX009 (ip), vehicle: saline with Tween-80
[2] = dose: 100.0 mg/kg/injection, schedule: Q04DX003 (ip), vehicle: Klucel (hydroxypropylcellulose) (HPC)
[3] = dose: 200.0 mg/kg/injection, schedule: Q01DX009 (ip), vehicle: saline with Tween-80
[4] = dose: 200.0 mg/kg/injection, schedule: Q04DX003 (ip), vehicle: Klucel (hydroxypropylcellulose) (HPC)
[5] = dose: 400.0 mg/kg/injection, schedule: Q01DX009 (ip), vehicle: saline with Tween-80
[6] = dose: 400.0 mg/kg/injection, schedule: Q04DX003 (ip), vehicle: Klucel (hydroxypropylcellulose) (HPC)
[7] = dose: 100.0 mg/kg/injection, schedule: Q01DX001 (ip), vehicle: saline
[8] = dose: 200.0 mg/kg/injection, schedule: Q01DX001 (ip), vehicle: saline
[9] = dose: 400.0 mg/kg/injection, schedule: Q01DX001 (ip), vehicle: saline
[10] = dose: 100.0 mg/kg/injection, schedule: Q04DX003 (ip), vehicle: saline
[11] = dose: 200.0 mg/kg/injection, schedule: Q04DX003 (ip), vehicle: saline
[12] = dose: 400.0 mg/kg/injection, schedule: Q04DX003 (ip), vehicle: saline
[13] = dose: 100.0 mg/kg/injection, schedule: Q01DX009 (ip), vehicle: Klucel (hydroxypropylcellulose) (HPC)
[14] = dose: 200.0 mg/kg/injection, schedule: Q01DX009 (ip), vehicle: Klucel (hydroxypropylcellulose) (HPC)
[15] = dose: 400.0 mg/kg/injection, schedule: Q01DX009 (ip), vehicle: Klucel (hydroxypropylcellulose) (HPC)
[16] = dose: 100.0 mg/kg/injection, schedule: Q01DX001 (ip), vehicle: other
[17] = dose: 200.0 mg/kg/injection, schedule: Q01DX001 (ip), vehicle: other
[18] = dose: 100.0 mg/kg/injection, schedule: Q04DX002 (ip), vehicle: Klucel (hydroxypropylcellulose) (HPC)
[19] = dose: 200.0 mg/kg/injection, schedule: Q04DX002 (ip), vehicle: Klucel (hydroxypropylcellulose) (HPC)
[20] = dose: 400.0 mg/kg/injection, schedule: Q04DX002 (ip), vehicle: Klucel (hydroxypropylcellulose) (HPC)

Measured: T/C

CC(=O)OC1=CCC(C(C)(C)C)CC1 (stereo unspecified)
inactive: dose: 12.5 mg/kg/injection, schedule: Q01DX009 (ip), vehicle: Klucel (hydroxypropylcellulose) (HPC) 107 % of control | dose: 12.5 mg/kg/injection, schedule: Q04DX003 (ip), vehicle: Klucel (hydroxypropylcellulose) (HPC) 96 % of control | dose: 25.0 mg/kg/injection, schedule: Q01DX009 (ip), vehicle: Klucel (hydroxypropylcellulose) (HPC) 93 % of control | dose: 25.0 mg/kg/injection, schedule: Q04DX003 (ip), vehicle: Klucel (hydroxypropylcellulose) (HPC) 102 % of control | dose: 50.0 mg/kg/injection, schedule: Q04DX003 (ip), vehicle: Klucel (hydroxypropylcellulose) (HPC) 106 % of control

O=[N+]([O-])c1ccc2c(c1)/C(=N/O)CCC2
inactive: [1] 110 % of control | [2] 96 % of control | [3] 92 % of control | [4] 91 % of control | [5] 90 % of control | [6] 104 % of control

O=C(O)C(F)(F)C(F)(F)C(F)(F)F
inactive: [7] 105 % of control | [8] 103 % of control | [9] 92 % of control

NS(=O)(=O)c1ccc(N=NN2CCOCC2)cc1
inactive: dose: 100.0 mg/kg/injection, schedule: Q04DX002 (ip), vehicle: saline with Tween-80 115 % of control | dose: 200.0 mg/kg/injection, schedule: Q04DX002 (ip), vehicle: saline with Tween-80 108 % of control | dose: 400.0 mg/kg/injection, schedule: Q04DX002 (ip), vehicle: saline with Tween-80 115 % of control

COC1OC2COc3ccccc3OC2C(NC(C)=O)C1O (stereo unspecified)
inactive: dose: 100.0 mg/kg/injection, schedule: Q01DX009 (ip), vehicle: other 96 % of control | dose: 200.0 mg/kg/injection, schedule: Q01DX009 (ip), vehicle: other 89 % of control | dose: 400.0 mg/kg/injection, schedule: Q01DX009 (ip), vehicle: other 94 % of control

CNCCCC(CO)NS(=O)(=O)c1ccc(C)cc1 (stereo unspecified)
inactive: dose: 100.0 mg/kg/injection, schedule: Q01DX001 (ip), vehicle: water 94 % of control | dose: 100.0 mg/kg/injection, schedule: Q04DX003 (ip), vehicle: water 92 % of control | dose: 200.0 mg/kg/injection, schedule: Q01DX001 (ip), vehicle: water 97 % of control | dose: 200.0 mg/kg/injection, schedule: Q04DX003 (ip), vehicle: water 100 % of control | dose: 400.0 mg/kg/injection, schedule: Q01DX001 (ip), vehicle: water 97 % of control | dose: 400.0 mg/kg/injection, schedule: Q04DX003 (ip), vehicle: water 87 % of control

CC(Br)CN1CCOCC1 (stereo unspecified)
inactive: [7] 103 % of control

COc1cc(C(O)c2nccc3cc(OC)c(OC)cc23)c([N+](=O)[O-])cc1OC (stereo unspecified)
inactive: dose: 75.0 mg/kg/injection, schedule: Q01DX001 (ip), vehicle: saline 111 % of control | dose: 150.0 mg/kg/injection, schedule: Q01DX001 (ip), vehicle: saline 106 % of control | dose: 300.0 mg/kg/injection, schedule: Q01DX001 (ip), vehicle: saline 101 % of control

CC(C)=CC=O
inactive: dose: 100.0 mg/kg/injection, schedule: Q01DX009 (ip), vehicle: saline sonified 97 % of control | [10] 96 % of control | dose: 200.0 mg/kg/injection, schedule: Q01DX009 (ip), vehicle: saline sonified 100 % of control | [11] 97 % of control | [12] 103 % of control

COC(=O)C(Br)C(Br)c1ccc(OC)c(OC)c1 (stereo unspecified)
inactive: [2] 96 % of control | [4] 101 % of control | [6] 96 % of control

Cc1ccc2nc3c4ccccc4c4ccccc4c3nc2c1
inactive: [13] 101 % of control | [2] 105 % of control | [14] 102 % of control | [4] 105 % of control | [15] 101 % of control | [6] 98 % of control

OC(c1ccccc1)(c1c2ccccc2cc2ccccc12)C1CCC1 (stereo unspecified)
inactive: [13] 101 % of control | [2] 110 % of control | [14] 102 % of control | [4] 91 % of control | [15] 96 % of control | [6] 110 % of control

CC(=O)NC1C(OCc2ccccc2)OC(COCc2ccccc2)C(OCc2ccccc2)C1OCc1ccccc1 (stereo unspecified)
inactive: dose: 100.0 mg/kg/injection, schedule: Q01DX001 (ip), vehicle: saline with Tween-80 86 % of control | dose: 200.0 mg/kg/injection, schedule: Q01DX001 (ip), vehicle: saline with Tween-80 94 % of control | dose: 400.0 mg/kg/injection, schedule: Q01DX001 (ip), vehicle: saline with Tween-80 94 % of control

O=S(=O)(Oc1ccc(-c2ccccc2)cc1)C1CC1c1ccccc1 (stereo unspecified)
inactive: [7] 93 % of control | [10] 93 % of control | [8] 97 % of control | [11] 96 % of control | [9] 90 % of control | [12] 91 % of control

[Cl][Sn]([Cl])([c]1ccccc1)[c]1ccccc1.c1ccc(-c2nnc(-c3ccccn3)nc2-c2ccccc2)cc1
inactive: dose: 3.12 mg/kg/injection, schedule: Q04DX003 (ip), vehicle: saline with Tween-80 96 % of control | dose: 6.25 mg/kg/injection, schedule: Q04DX003 (ip), vehicle: saline with Tween-80 104 % of control | dose: 6.25 mg/kg/injection, schedule: Q04DX003 (ip), vehicle: saline 93 % of control | dose: 12.5 mg/kg/injection, schedule: Q04DX003 (ip), vehicle: saline with Tween-80 112 % of control | dose: 12.5 mg/kg/injection, schedule: Q04DX003 (ip), vehicle: saline 98 % of control | dose: 25.0 mg/kg/injection, schedule: Q04DX003 (ip), vehicle: saline 120 % of control

CC(NC(=O)C(F)(F)F)C(=O)O (stereo unspecified)
inactive: dose: 100.0 mg/kg/injection, schedule: Q01DX009 (ip), vehicle: saline 92 % of control | [10] 103 % of control | dose: 200.0 mg/kg/injection, schedule: Q01DX009 (ip), vehicle: saline 95 % of control | [11] 93 % of control | dose: 400.0 mg/kg/injection, schedule: Q01DX009 (ip), vehicle: saline 113 % of control | [12] 97 % of control

Cn1c(=O)c2[nH]c(CS(=O)(=O)Cc3nc4c([nH]3)c(=O)n(C)c(=O)n4C)nc2n(C)c1=O
inactive: dose: 50.0 mg/kg/injection, schedule: Q01DX001 (ip), vehicle: other 90 % of control | [16] 101 % of control | [17] 95 % of control | dose: 400.0 mg/kg/injection, schedule: Q01DX001 (ip), vehicle: other 92 % of control

CC(/C=C/c1ccccc1)=C1/SC(=S)NC1=O
inactive: [7] 93 % of control | [8] 96 % of control | [9] 94 % of control

COC(=O)c1nnn(S(=O)(=O)c2ccc(C)cc2)c1C(=O)OC
inactive: [18] 91 % of control | [19] 95 % of control | [20] 91 % of control

Cc1c(CBr)c2ccccc2[nH]c1=O
inactive: [16] 97 % of control | [17] 108 % of control

Cc1ccc(C(=O)NCCCOc2ccc([N+](=O)[O-])cc2Cl)cc1S(=O)(=O)F
inactive: [1] 106 % of control | dose: 100.0 mg/kg/injection, schedule: Q04DX003 (ip), vehicle: saline with Tween-80 86 % of control | [3] 96 % of control | dose: 200.0 mg/kg/injection, schedule: Q04DX003 (ip), vehicle: saline with Tween-80 97 % of control | [5] 98 % of control | dose: 400.0 mg/kg/injection, schedule: Q04DX003 (ip), vehicle: saline with Tween-80 103 % of control

O=C(O)CNC(=O)Nc1cccc(Cl)c1
inactive: dose: 50.0 mg/kg/injection, schedule: Q01DX001 (ip), vehicle: Klucel (hydroxypropylcellulose) (HPC) 100 % of control | dose: 100.0 mg/kg/injection, schedule: Q01DX001 (ip), vehicle: Klucel (hydroxypropylcellulose) (HPC) 105 % of control | dose: 200.0 mg/kg/injection, schedule: Q01DX001 (ip), vehicle: Klucel (hydroxypropylcellulose) (HPC) 108 % of control

CC(C)=CCCC(=O)NC(=O)NS(=O)(=O)c1ccc(Cl)cc1
inactive: dose: 50.0 mg/kg/injection, schedule: Q01DX009 (ip), vehicle: Klucel (hydroxypropylcellulose) (HPC) 109 % of control | [13] 100 % of control | [14] 96 % of control

CC(C)(C)OC(=O)C(N)CC(N)=O (stereo unspecified)
inactive: [13] 106 % of control | [18] 103 % of control | [14] 106 % of control | [19] 88 % of control | [15] 98 % of control | [20] 98 % of control
